According to paper PMC13366330 (Acta Pharmaceutica Sinica. B, 2025):

Tests used:
TAMs in tumor tissue = test: M2 polarization of TAMs in tumor tissue, flow cytometry; assay type: in vivo, C57 mice; details: 10 mg/kg, intraperitoneal
[1] = Body and organ weights, organ H&E in the antitumor experiment; assay type: in vivo, C57 mice; details: 100 mg/kg, intraperitoneal

C[C@H](NC(=O)c1c(N)nn2cccnc12)c1cc2cccc(C#Cc3cnn(C)c3)c2c(=O)n1-c1ccccc1 [IPI-549]
percentage of M2 polarization in TAMs (TAMs in tumor tissue): 15.40%

CN(C)/N=N/c1[nH]cnc1C(N)=O [dacarbazine]
liver H&E finding [1]: coagulative necrosis | spleen weight [1]: significant decrease
